These results are taken from patent US20150368248A1, “2-SUBSTITUTED-6-BIARYLMETHYLAMINO-9-CYCLOPENTYL-9H-PURINE DERIVATIVES, USE THEREOF AS MEDICAMENTS, AND PHARMACEUTICAL COMPOSITIONS” (UNIVERZITA PALACKEHO V OLOMOUCI, priority 2013, published 2015).

Read-outs that look alike come from different tables or passages of the source.

The subject of assay [1] is human umbilical vein endothelial cells (HUVECs). Description: Migration scratch assay. More on the design: key to Wound area: ++: open; +: partly open; 0: closed. To be noted: for Wound area: 24 h; for inhibition of migration (in words): 24 h treatment. The assay is classed as cell-based. The protocol: Migration assay was performed as described previously (Krystof et al., 2011, Eur J Med Chem.; 46(9):4289-94). Briefly, confluent HUVECs were scratched and immediately treated for 24 h with various doses of compounds. After incubation each well was photographed using a DP Controller system (Olympus) connected to a Olympus BX50 microscope. Migration was expressed as the proportion of pixels of the wound area in the image that were not covered by cells using “in house” software.

A further assay has as its system HUVEC cells. Description: Tube formation assay on Matrigel. To be noted: 24 h treatment. The assay is classed as cell-based, human. On the procedure: For an evaluation of tube formation, HUVEC cells in endothelial cell growth medium (ECGM) containing tested compound were seeded onto Matrigel® (BD) coated ibidi angiogenesis slides (15-well, ibidi GmbH, Munich, Germany). After 24 h, images were taken using the Olympus BX50 miscoscope with DP Controller system. Evaluation of formation of tubes was expressed as a number of tubes and number of nodes of treated cells compared with untreated control using specific “in house” software.

For assay [2], the system named is HepG2 and PLC cells. In words: Flow cytometry of cellular DNA content. To be noted: 24 hours. Type of assay: cell-based, human. On the procedure: The analysis of cellular DNA content was performed with a multicolor BD LSRFortessa cell analyzer (Becton Dickinson, Franklin Lakes, USA). Prior to the cytofluorometric measurement, about 5×10^5 cells were washed with phosphate buffered saline (PBS), fixed in 70% ethanol, washed again with PBS and treated with 100 μg RNAse A/50 μg propidium iodide per ml for 10 minutes to stain cellular DNA. The percentage of cells in the various cell cycle positions were calculated using a software package from the same manufacturer.
For orientation: A flow cytometer gives signals particle by particle.

A further assay deals with Mcl-1. Description: Immunoblot analysis of anti-apoptotic protein Mcl-1. The assay is classed as cell-based. To be noted: Hep3B, PLC/PRF/5 and AKH3p cell lines, 24 hours. On the procedure: Effect of BP14 on cell apoptosis was complemented by immunoblot analysis of selected apoptotic proteins. For immunoblotting, cell were detached with rubber policeman and washed three times with ice-cold PBS and lysed in buffer (50 mM Tris, pH 7.4, 250 mM NaCl, 5 mM EDTA, 50 mM NaF, 1 mM Na3VO4, 1% Nonidet P40) containing mixture of protease and phosphatase inhibitors (Sigma-Aldrich, USA). 20 μg of total proteins were separated by SDS-polyacrylamide gel electrophoresis (SDS-PAGE) and transferred onto nitrocellulose membranes. Membranes were blocked in 5% milk and 0.1% Tween 20 in PBS and probed overnight with specific antibodies for PARP-1 (clone F-2; Santa Cruz Biotechnology, USA), Mcl-1 (S-19; Santa Cruz Biotechnology, USA) and β-actin (C-4, Santa Cruz Biotechnology, USA). All primary antibodies were diluted in PBS containing 5% powdered milk; 0.1% Tween 20. Peroxidase conjugated rabbit anti-mouse immunoglobulin or porcine anti-rabbit immunoglobulin antisera (DAKO, Denmark) were used as the secondary antibodies and visualised with ECL reagents (Amersham-Pharmacia, Little Chalfont, UK).
On the technique in general: In western blotting, separated proteins are transferred to a membrane and probed.

Another assay relates to Hep3B. In words: Determination of long-term chemosensitivity (MTT). To be noted: Homo sapiens. The assay is classed as cell-based. The protocol: (§1) Cell viability was determined using the 3-(4,5 dimethylthiazol-2-yl)-2,5-diphenyltetrazolium bromide (MTT) assay. Briefly, cells were seeded in triplicates at a density of 6×10^3 cells per well. After 24 hours, cells were incubated with drug-containing medium for 72 hours. Cells were incubated with MTT solution (5 mg/ml; Sigma, St. Louis, USA) and medium was replaced with DMSO after five hours. The absorbance was measured at 620 nm by employing a microplate reader (Asys HiTech, Salzburg, Austria). MTT assays were repeated 3 times for each drug application and untreated cells were used as reference. IC50 values were obtained by log-linear interpolation of data points and are depicted by dose-response curves using the software GraphPad Prism® 5.01.
(§2) The selection of chemoresistant cells was monitored every 6 weeks by the determination of IC50 values using the MTT assay. HCC cells showing higher IC50 values after treatment with inhibitors as compared to untreated cells are considered as chemoresistant.

The subject of another assay is HepG2. In words: Determination of long-term chemosensitivity (MTT). Type of assay: cell-based. To be noted: Homo sapiens, read-out: IC50 for BP14, HepG2. On the procedure: as §1, §2
Assay [3] deals with RNA polymerase II phosphorylation at serines 2 and 5. Description: Immunoblot of RNA polymerase II phosphorylation (CDK7/CDK9 substrate). The assay is classed as cell-based, human. On the procedure:
We monitored levels of phosphorylation of RNA polymerase II, which is a substrate of CDK7 and CDK9, in cells treated with compound BP14 (FIG. 3). Immunoblotting analysis was performed as described in Example 33 with using appropriate antibodies for anti-phospho RNA polymerase II (S5) (Bethyl Laboratories, USA), anti-phospho RNA polymerase II (S2) (Bethyl Laboratories, USA), anti-RNA polymerase II (clone ARNA-3, Millipore) and β-actin (clone C4, Santa Cruz Biotechnology, USA).
Immunoblotting was performed as described previously (36). The primary antibodies were used at the dilutions: anti-phospho-Ser5 RNA Pol II (CDK7; Bethyl Laboratories, Montgomery, USA), 1:1,000; anti-phospho-Ser2 RNA Pol II (CDK9; Bethyl Laboratories, Montgomery, USA), 1:1,000; anti-RNA Pol II (Santa Cruz Biotechnology, Santa Cruz, USA), 1:1,000; anti-PARP (Cell Signaling Technology, Beverly, USA), 1:1,000; anti-β-actin (Sigma, St. Louis, USA), 1:2.500. Horseradish peroxidase-conjugated secondary antibodies (Calbiochem, LaJolla, USA) were used at dilutions of 1:10,000.

Assay [4] has as its system HepG2 and PLC cells. Description: Clonogenic survival assay. The assay is classed as cell-based, human. To be noted: 0.2 μM. The protocol: To analyze the clonogenic growth behavior of cell populations on tissue culture plastic, 500 cells were seeded in a 6-well plate and, either untreated or pretreated with BA-12 or BP-14 for 24 hours, incubated with standard medium for 10 days at 37° C. and 5% CO2. Colonies were fixed with methanol/acetic acid (3:1) and stained with 0.25% crystal violet. The crystal violet of fixed cells was solubilized with 1% SDS and the absorbance was photometrically determined at 560 nm.

As for `NC1CCC(Nc2nc(NCc3ccc(-c4cccs4)nc3)c3ncn(C4CCCC4)c3n2)CC1` (stereo not shown) [BP30, N^2-(4-amino-cyclohexyl)-9-cyclopentyl-N^6-(6-thiophen-2-yl-pyridin-3-ylmethyl)-9H-purine-2,6-diamine], in assay [1] (100 nM), the Wound area result was “++” and the “inhibition of migration (in words)” value was “Significant inhibition of migration”. Also, the Wound area result in assay [1] (1000 nM) was “++”.

On to `NC1CCC(Nc2nc(NCc3ccc(-c4ccsc4)nc3)c3ncn(C4CCCC4)c3n2)CC1` (stereo not shown) [BP35, N^2-(4-amino-cyclohexyl)-9-cyclopentyl-N^6-(6-thiophen-3-yl-pyridin-3-ylmethyl)-9H-purine-2,6-diamine], for which the Wound area in assay [1] (100 nM) is 0; in assay [1] (1000 nM), “++”.

Consider `NC1CCC(Nc2nc(NCc3ccc(-c4ccccc4O)nc3)c3ncn(C4CCCC4)c3n2)CC1` (stereo not shown) [BP20, N^2-(4-amino-cyclohexyl)-9-cyclopentyl-N^6-[6-(2-hydroxy-phenyl)-pyridin-3-ylmethyl]-9H-purine-2,6-diamine], for which, in assay [1] (100 nM), the Wound area entry was “++” and the “inhibition of migration (in words)” value is recorded as “Significant inhibition of migration”. Besides, the Wound area result in assay [1] (1000 nM) is recorded as “++”. Moreover, the “branching points, number of tubes, total tube length and mean tube length” value with HUVEC cells was “significantly reduced”.

On to `COc1ccccc1-c1ccc(CNc2nc(NC3CCC(N)CC3)nc3c2ncn3C2CCCC2)cn1` (stereo not shown) [BP18, N^2-(4-amino-cyclohexyl)-9-cyclopentyl-N^6-[6-(2-methoxy-phenyl)-pyridin-3-ylmethyl]-9H-purine-2,6-diamine], for which the Wound area result is reported as “+” in assay [1] (100 nM) and “++” in assay [1] (1000 nM).

Take `NC1CCC(Nc2nc(NCc3ccc(-c4ccoc4)nc3)c3ncn(C4CCCC4)c3n2)CC1` (stereo not shown) [BP36, N^2-(4-amino-cyclohexyl)-9-cyclopentyl-N^6-(6-furan-3-yl-pyridin-3-ylmethyl)-9H-purine-2,6-diamine]: the figures for the Wound area entry in assay [1] (100 nM) and in assay [1] (1000 nM) were “+” and “++”, respectively.

As usually defined, the IC50 is the concentration that inhibits the measured activity by half. `NC1CCC(Nc2nc(NCc3ccc(-c4ccco4)nc3)c3ncn(C4CCCC4)c3n2)CC1` (stereo not shown) [BP14, N^2-(4-amino-cyclohexyl)-9-cyclopentyl-N^6-(6-furan-2-yl-pyridin-3-ylmethyl)-9H-purine-2,6-diamine]: the cell cycle distribution result in the assay with HepG2 and PLC cells [2] was “accumulation of HepG2 and PLC cells in the G2 phase”. In addition, the Wound area result in assay [1] (100 nM) was “+”; in assay [1] (1000 nM), “++”. In addition, the “level of anti-apoptotic protein Mcl-1” value in the assay with Mcl-1 is reported as “large dose-dependent decrease”. Moreover, the concentration for half-maximal inhibition (IC50) in the assay with Hep3B (control, read-out: IC50 for BP14, Hep3B) came out at 530 nM; with Hep3B (long-term exposure at 1/16 IC50, read-out: IC50 for BP14, Hep3B), 420 nM; in the assay with Hep3B (long-term exposure at ¼ IC50, read-out: IC50 for BP14, Hep3B), 450 nM; with Hep3B (long-term exposure at ½ IC50, read-out: IC50 for BP14, Hep3B) it was 800 nM; with Hep3B (long-term exposure at ⅛ IC50, read-out: IC50 for BP14, Hep3B), 380 nM; in the assay with HepG2 (HepG2, control), 320 nM. Moreover, the IC50 is 270 nM in the assay with HepG2 (HepG2, long-term exposure at 1/16 IC50); 450 nM in the assay with HepG2 (HepG2, long-term exposure at ¼ IC50); 590 nM in the assay with HepG2 (HepG2, long-term exposure at ½ IC50); 390 nM in the assay on HepG2 (HepG2, long-term exposure at ⅛ IC50). Moreover, the “RNA polymerase II phosphorylation on serine 5 (CDK7) and serine 2 (CDK9)” value in assay [3] (HepG2 and PLC cells, below 1 μM, 24 hours) was “strong reduction of RNA polymerase II phosphorylation”. Moreover, the “phosphorylation at serines 2 and 5 of RNA polymerase II” value in assay [3] (mainly AKH3sp and Hep3B cell lines, 24 h) was “rapid decrease in phosphorylation at serines 2 and 5 of RNA polymerase II”. The “branching points, number of tubes, total tube length and mean tube length” value in the assay on HUVEC cells is “significantly reduced”. The “reduction of clonogenic growth behavior” value with HepG2 and PLC cells [4] is listed as “more than 15 fold”.

`NC1CCC(Nc2nc(NCc3ccc(-c4cccc(F)c4)nc3)c3ncn(C4CCCC4)c3n2)CC1` (stereo not shown) [BP19, N^2-(4-amino-cyclohexyl)-9-cyclopentyl-N^6-[6-(3-fluoro-phenyl)-pyridin-3-ylmethyl]-9H-purine-2,6-diamine]: the Wound area entry in assay [1] (100 nM) is recorded as “+”; in assay [1] (1000 nM), “++”.

With `NC1CCC(Nc2nc(NCc3ccc(-c4ccco4)cc3)c3ncn(C4CCCC4)c3n2)CC1` (stereo not shown) [BP4, N^2-(4-amino-cyclohexyl)-9-cyclopentyl-N^6-(4-furan-2-yl-benzyl)-9H-purine-2,6-diamine], the Wound area in assay [1] (100 nM) was 0; in assay [1] (1000 nM), “++”.

Consider `NC1CCC(Nc2nc(NCc3ccc(-n4cccn4)cc3)c3ncn(C4CCCC4)c3n2)CC1` (stereo not shown) [BP24, N^2-(4-amino-cyclohexyl)-9-cyclopentyl-N^6-(4-pyrazol-1-yl-benzyl)-9H-purine-2,6-diamine], for which the Wound area result in assay [1] (100 nM) is “+”; in assay [1] (1000 nM), “++”.
